In ChEMBL document CHEMBL3751670, “Enkephalin analogues with N-phenyl-N-(piperidin-2-ylmethyl)propionamide derivatives: Synthesis and biological evaluations” (Bioorg Med Chem Lett, 2016):

Test system: Rattus norvegicus
Assay: Antinociceptive activity in non-injured Sprague-Dawley rat model assessed as paw withdrawal latency at 10 ug/5 uL administered intrathecal after 5 mins by radiant heat assay relative to vehicle-treated control
Assay type: functional

CCC(=O)N(CC1CCCCN1[C@@H](Cc1ccccc1)C(=O)NCC(=O)N[C@H](C)C(=O)N[C@@H](Cc1c(C)cc(O)cc1C)C(=O)O)c1ccccc1 (stereo partly specified)
Activity: 63%
